US9737502B2, “Calebin A for hepatic steatosis” (SAMI LABS LIMITED, priority 2011, dated 2017)
Marks after values point to notes of the source that are not given here.

Columns and labels:
[1] = Study 2: body weight and liver weight in high fat diet induced obese mice; type: in vivo, C57 mice; conditions: males
Excerpt: The animals were fed ad libitum with AMRUT Laboratory Animal Feed manufactured by Pranav Agro Industries Limited, Sangli, Maharastra throughout the acclimatization. Open Source Diet D12450B diet (with 10 kcal % Fat) and Open Source Diet D12492 High fat diet (with 60 kcal % Fat) manufactured by Research Diet Inc, USA procured from Indus Marketing, Hyderabad, Andhra Pradesh, INDIA was used for induction of obesity and the main study.
The animals were divided into 5 groups viz., Group 1, 2, 3, 4 and 5 consisting of 10 animals (5 male and 5 female) each.
The G1 Control group animals were fed with normal control diet feed D12450B containing 10 kcal % fat and the G2 to G5 group animals were fed with high fat diet feed D12492 containing 60 kcal % fat during the induction of obesity and during main study.
The main study was started after the induction of obesity. The 3 doses of Calebin A was administered to animals from Day 29 daily consecutively for a period of 28 days. The feeding of diets continued in the main study in a similar way as performed in induction of obesity. The G1 Control and G2 High fat diet control group animals were administered with 0.5% CMC (Carboxy Methyl Cellulose) while other group animals received test item from Day 29 to Day 56 of the study period. The dose volume of administration was maintained according to the weekly body weight of individual animals. The total duration of the study was 61 days (5 days Acclimatization period+28 days Induction of obesity+28 days Main study).
Individual animal body weights were recorded on the day of receipt on Day 1 and weekly (±1 day) thereafter during the study period.
Further, after completion of the study period (Day 57) the animals were humanely sacrificed by exposure to excess CO2 in gas chamber and organ weights were noted. The brain, thymus, liver, adrenals, kidneys (paired), spleen, heart and ovaries/testes (paired) from all animals were trimmed off any adherent tissue, as appropriate and weighed wet as soon as possible to avoid drying. While in general, there was no statistically significant difference in organ weights in males and females, organ specific improvements in weight, example for liver in the male group was observable (See TABLE X). […] It may be noted that Behnke, A. R. 1953. Lean body mass. A.M.A. Arch. Int. Med. 91, 585 indicates liver as an index of lean body mass promotion and H. F. Kraybill et al, J ANIM SCI 1954, 13:548-555 indicate that other visceral organs may also be equally predictive of lean body mass promotion. It is quite possible that statistical significance in terms of sustainable increase in organ weights without indications of toxicity may be achieved with a larger sample size (more number of tested animals) over extended testing periods.

[2] = Serum biochemistry (TCHO, TG, HDL, GOT, GPT) in HFD-fed mice, 12 weeks; type: in vivo, C57BL/6J mice; conditions: for GPT: HFD 38.25 ± 8.92; for HDL: HFD 109.40 ± 1.34; for TG: HFD 151.00 ± 8.89; for TCHO: HFD 162.67 ± 15.89; for GOT: HFD 335.28 ± 18.80
Method: Food cups were replenished with fresh diet daily. […] Statistical analysis was done by Student's t test.
C57BL/6J mice fed with HFD for period of 12 weeks were evaluated for serum levels of GOT and GTP. Results indicated enhanced serum GOT and GTP (TABLE XI) when compared to the ND group.
Data were presented as the mean±SE (n=8 per group). […] ND: normal diet; HFD: high fat diet.

COc1cc(/C=C/C(=O)COC(=O)/C=C/c2ccc(O)c(OC)c2)ccc1O [Calebin A]
BODY WEIGHT ([1]; G3 5 mg/kg + High fat diet, Day 15 (obesity induction, before dosing)): 27.68 ± 0.95 grams
BODY WEIGHT ([1]; G3 5 mg/kg + High fat diet, Day 22 (obesity induction, before dosing)): 29.98**^a ± 1.03 grams
BODY WEIGHT ([1]; G3 5 mg/kg + High fat diet, Day 29 (start of daily dosing)): 30.92**^a ± grams
BODY WEIGHT ([1]; G3 5 mg/kg + High fat diet, Day 36 (dosing Day 29-56)): 31.70*^a ± grams
BODY WEIGHT ([1]; G3 5 mg/kg + High fat diet, Day 43 (dosing Day 29-56)): 30.84***^b ± grams
BODY WEIGHT ([1]; G3 5 mg/kg + High fat diet, Day 50 (dosing Day 29-56)): 30.04***^b ± grams
BODY WEIGHT ([1]; G3 5 mg/kg + High fat diet, Day 56 (dosing Day 29-56)): 29.98***^b ± grams
BODY WEIGHT ([1]; G4 10 mg/kg + High fat diet, Day 1 (obesity induction, before dosing)): 25.28 ± 0.88 grams
BODY WEIGHT ([1]; G4 10 mg/kg + High fat diet, Day 8 (obesity induction, before dosing)): 25.82 ± 0.91 grams
BODY WEIGHT ([1]; G4 10 mg/kg + High fat diet, Day 15 (obesity induction, before dosing)): 27.58 ± 0.65 grams
BODY WEIGHT ([1]; G4 10 mg/kg + High fat diet, Day 22 (obesity induction, before dosing)): 29.92**^a ± 0.97 grams
BODY WEIGHT ([1]; G4 10 mg/kg + High fat diet, Day 29 (start of daily dosing)): 31.02**^a ± grams
BODY WEIGHT ([1]; G4 10 mg/kg + High fat diet, Day 36 (dosing Day 29-56)): 31.06*^b ± grams
BODY WEIGHT ([1]; G4 10 mg/kg + High fat diet, Day 43 (dosing Day 29-56)): 29.80***^b ± grams
BODY WEIGHT ([1]; G4 10 mg/kg + High fat diet, Day 50 (dosing Day 29-56)): 28.98***^b ± grams
BODY WEIGHT ([1]; G4 10 mg/kg + High fat diet, Day 56 (dosing Day 29-56)): 28.62***^b ± grams
BODY WEIGHT ([1]; G5 20 mg/kg + High fat diet, Day 1 (obesity induction, before dosing)): 25.88 ± 1.25 grams
BODY WEIGHT ([1]; G5 20 mg/kg + High fat diet, Day 8 (obesity induction, before dosing)): 26.66 ± 1.73 grams
BODY WEIGHT ([1]; G5 20 mg/kg + High fat diet, Day 15 (obesity induction, before dosing)): 28.94*^a ± 1.59^ grams
BODY WEIGHT ([1]; G5 20 mg/kg + High fat diet, Day 22 (obesity induction, before dosing)): 30.64**^a ± 1.16 grams
BODY WEIGHT ([1]; G5 20 mg/kg + High fat diet, Day 29 (start of daily dosing)): 31.86***^a ± grams
BODY WEIGHT ([1]; G5 20 mg/kg + High fat diet, Day 36 (dosing Day 29-56)): 31.48*^b ± grams
BODY WEIGHT ([1]; G5 20 mg/kg + High fat diet, Day 43 (dosing Day 29-56)): 29.12***^b ± grams
BODY WEIGHT ([1]; G5 20 mg/kg + High fat diet, Day 50 (dosing Day 29-56)): 27.74***^b ± grams
BODY WEIGHT ([1]; G5 20 mg/kg + High fat diet, Day 56 (dosing Day 29-56)): 27.54***^b ± grams
GPT ([2]; HFD + 0.25% Calebin A): 23.00 ± 2.92^c U/l
HDL ([2]; HFD + 0.25% Calebin A): 107.80 ± 2.05^a mg/dl
TG ([2]; HFD + 0.25% Calebin A): 121.25 ± 6.55^b mg/dl
TCHO ([2]; HFD + 0.25% Calebin A): 136.50 ± 7.51^c mg/dl
GOT ([2]; HFD + 0.25% Calebin A): 110.33 ± 2.52^b U/l
GPT ([2]; HFD + 1% Calebin A): 32.50 ± 3.00^a U/l
HDL ([2]; HFD + 1% Calebin A): 104.50 ± 8.80^a mg/dl
TG ([2]; HFD + 1% Calebin A): 89.75 ± 5.85^b mg/dl
TCHO ([2]; HFD + 1% Calebin A): 110.50 ± 17.97^a mg/dl
GOT ([2]; HFD + 1% Calebin A): 77.50 ± 11.12^c U/l
